Test results reported in patent publication US20240368214A1, “POSITIVE NMDA-MODULATING COMPOUNDS AND METHODS OF USE THEREOF” (SAGE THERAPEUTICS, INC., priority 2021, published 2024).
Where two headings read alike, the source gives them in different places.

Target: T1, recombinant human GluN1/GluN2A receptor (Homo sapiens, UniProt Q05586+Q12879)
T1 construct: expressed in transfected cells; host or cells: HEK293, tetracycline-inducible expression
Experiment: Whole-cell patch clamp of mammalian cells (Syncropatch 384i), NMDA modulation
Assay type: cell-based
Details: HEK293 cells, human GluN1/GluN2A, glutamate 1 μM / glycine 100 μM, -80 mV, peak amplitude increase; for EC50: read-out: EC50
Outline: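 Modulation read as fold rise in peak current, (Icomp/Icontrol)−1, from 8 concentrations with ≥2 wells each, four-parameter fit. Compound pre-incubated 120 s then co-applied with 1 μM glutamate plus 100 μM glycine; tetracycline-inducible HEK293 GluN1/GluN2A cells clamped at −80 mV.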

T1 sequence (Q12879 23-1464, other chains not shown): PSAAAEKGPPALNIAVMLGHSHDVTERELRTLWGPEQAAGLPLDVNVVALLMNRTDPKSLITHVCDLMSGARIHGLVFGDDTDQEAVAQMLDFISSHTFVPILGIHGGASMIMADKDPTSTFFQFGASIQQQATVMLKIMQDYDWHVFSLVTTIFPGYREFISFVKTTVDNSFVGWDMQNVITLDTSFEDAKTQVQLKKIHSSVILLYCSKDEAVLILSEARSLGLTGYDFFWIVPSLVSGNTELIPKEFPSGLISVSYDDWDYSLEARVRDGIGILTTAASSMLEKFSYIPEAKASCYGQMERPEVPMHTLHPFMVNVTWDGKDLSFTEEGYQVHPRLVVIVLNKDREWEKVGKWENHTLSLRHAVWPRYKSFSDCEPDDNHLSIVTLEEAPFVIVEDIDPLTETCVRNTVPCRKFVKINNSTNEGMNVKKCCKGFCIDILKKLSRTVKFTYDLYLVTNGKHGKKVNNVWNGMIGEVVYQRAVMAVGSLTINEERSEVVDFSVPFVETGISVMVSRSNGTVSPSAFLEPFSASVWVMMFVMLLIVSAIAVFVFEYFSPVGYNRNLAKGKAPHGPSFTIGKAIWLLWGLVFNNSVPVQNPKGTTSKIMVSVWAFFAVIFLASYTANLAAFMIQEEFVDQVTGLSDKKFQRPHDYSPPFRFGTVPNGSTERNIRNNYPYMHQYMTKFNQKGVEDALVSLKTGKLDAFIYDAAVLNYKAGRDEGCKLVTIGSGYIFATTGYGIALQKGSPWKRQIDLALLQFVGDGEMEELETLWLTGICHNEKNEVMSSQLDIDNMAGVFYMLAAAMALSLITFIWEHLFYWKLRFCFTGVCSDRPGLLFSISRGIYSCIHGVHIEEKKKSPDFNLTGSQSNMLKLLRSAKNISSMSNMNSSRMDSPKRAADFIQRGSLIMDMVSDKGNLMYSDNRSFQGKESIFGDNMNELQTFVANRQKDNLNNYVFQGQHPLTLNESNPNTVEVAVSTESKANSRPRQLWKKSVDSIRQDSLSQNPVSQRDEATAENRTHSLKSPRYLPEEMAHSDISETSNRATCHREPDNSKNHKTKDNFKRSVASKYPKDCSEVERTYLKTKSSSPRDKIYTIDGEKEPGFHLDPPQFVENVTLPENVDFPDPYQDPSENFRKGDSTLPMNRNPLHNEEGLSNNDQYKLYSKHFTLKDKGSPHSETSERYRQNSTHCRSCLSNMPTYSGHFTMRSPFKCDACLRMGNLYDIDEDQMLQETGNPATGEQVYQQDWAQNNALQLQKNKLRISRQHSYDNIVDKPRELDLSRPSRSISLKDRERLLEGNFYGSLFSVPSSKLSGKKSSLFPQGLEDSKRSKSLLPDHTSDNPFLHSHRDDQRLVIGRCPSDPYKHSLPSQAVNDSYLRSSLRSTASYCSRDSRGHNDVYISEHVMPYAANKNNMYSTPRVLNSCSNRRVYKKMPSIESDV

Row | Compound | Emax (Table H-2) [%] | EC50 (Table H-2) [µM] | Emax (Table G-2) [%] | EC50 (Table G-2) [µM]
1 | CC[C@]1(O)CC[C@@]2(CC)[C@@H](CC[C@H]3[C@@H]4CC[C@H]([C@H](C)CC[C@@](C)(O)C(F)(F)F)[C@@]4(C)CC[C@@H]32)C1 [Compound G-4, (3S,5S,8S,9S,10S,13R,14S,17R)-3,10-diethyl-13-methyl-17-((2R,5R)-6,6,6-trifluoro-5-hydroxy-5-methylhexan-2-yl)hexadecahydro-1H-cyclopenta[a]phenanthren-3-ol] |  |  | 100 to 200 | 0.1 to 0.5
2 | CC[C@]1(O)CC[C@@]2(CC)[C@@H](CC[C@H]3[C@@H]4CC[C@H]([C@H](C)CC[C@](C)(O)C(F)(F)F)[C@@]4(C)CC[C@@H]32)C1 [Compound G-5, (3S,5S,8S,9S,10S,13R,14S,17R)-3,10-diethyl-13-methyl-17-((2R,5S)-6,6,6-trifluoro-5-hydroxy-5-methylhexan-2-yl)hexadecahydro-1H-cyclopenta[a]phenanthren-3-ol] |  |  | > 200 | 0.001 to 0.1
3 | C[C@H](CCC1(O)CCC(C)(C)CC1)[C@H]1CCC[C@H]2[C@@H]3CC[C@H]4C[C@](O)(C(F)(F)F)CC[C@]4(C)[C@H]3CC[C@]12C [Compound H-3, (2S,4aS,4bS,6aR,7R,10aS,10bR,12aS)-7-((R)-4-(1-hydroxy-4,4-dimethylcyclohexyl)butan-2-yl)-4a,6a-dimethyl-2 (trifluoromethyl)octadecahydrochrysen-2-ol] |  | > 1 |  | 
4 | CC[C@]1(O)CC[C@@]2(C)[C@@H](CC[C@@H]3[C@@H]2CC[C@]2(C)[C@@H]([C@H](C)CCCC(C)(C)O)CCC[C@@H]32)C1 [Compound H-4, (2S,4aS,4bS,6aR,7R,10aS,10bR,12aS)-2-ethyl-7-((R)-6-hydroxy-6-methylheptan-2-yl)-4a,6a-dimethyloctadecahydrochrysen-2-ol] | 100 to 200 | 0.1 to 0.5 |  | 
5 | CC[C@]1(O)CC[C@@]2(C)C(=CC[C@H]3[C@@H]4CCC[C@H]([C@H](C)CC[C@H](O)C(C)C)[C@@]4(C)CC[C@@H]32)C1 [Compound H-5, (2S,4aR,4bS,6aR,7R,10aS,10bS)-2-ethyl-7-((2R,5S)-5-hydroxy-6-methylheptan-2-yl)-4a,6a-dimethyl-1,2,3,4,4a,4b,5,6,6a,7,8,9,10,10a,10b,11-hexadecahydrochrysen-2-ol] |  | 0.1 to 0.5 |  | 
6 | CC[C@]1(O)CC[C@@]2(C)C(=CC[C@H]3[C@@H]4CCC[C@H]([C@H](C)CC[C@@H](O)C(C)C)[C@@]4(C)CC[C@@H]32)C1 [Compound H-6, (2S,4aR,4bS,6aR,7R,10aS,10bS)-2-ethyl-7-((2R,5R)-5-hydroxy-6-methylheptan-2-yl)-4a,6a-dimethyl-1,2,3,4,4a,4b,5,6,6a,7,8,9,10,10a,10b,11-hexadecahydrochrysen-2-ol] | < 100 | 0.001 to 0.1 |  | 
7 | CC(C)[C@@H](O)CC[C@@H](C)[C@H]1CCC[C@H]2[C@@H]3CC=C4C[C@@](C)(O)CC[C@]4(C)[C@H]3CC[C@]12C [Compound H-7, (2S,4aR,4bS,6aR,7R,10aS,10bS)-7-((2R,5S)-5-hydroxy-6-methylheptan-2-yl)-2,4a,6a-trimethyl-1,2,3,4,4a,4b,5,6,6a, 7,8,9,10,10a, 10b,11-hexadecahydrochrysen-2-ol] |  | 0.1 to 0.5 |  | 
8 | CC(C)[C@H](O)CC[C@@H](C)[C@H]1CCC[C@H]2[C@@H]3CC=C4C[C@@](C)(O)CC[C@]4(C)[C@H]3CC[C@]12C [Compound H-8, (2S,4aR,4bS,6aR,7R,10aS,10bS)-7-((2R,5R)-5-hydroxy-6-methylheptan-2-yl)-2,4a,6a-trimethyl-1,2,3,4,4a,4b,5,6,6a, 7,8,9,10,10a,10b,11-hexadecahydrochrysen-2-ol] | < 100 | 0.1 to 0.5 |  | 

More lines, main results first:

Row | Emax (Table H-2) [%] | EC50 (Table H-2) [µM] | Compound | Emax (Table G-2) [%] | EC50 (Table G-2) [µM]
9 | 100 to 200 | 0.5 to 1 | C[C@H](CC[C@](C)(O)C(F)(F)F)[C@H]1CCC[C@H]2[C@@H]3CC=C4C[C@@](C)(O)CC[C@]4(C)[C@H]3CC[C@]12C [Compound H-1, (2S,4aR,4bS,6aR,7R,10aS,10bS)-2,4a,6a-trimethyl-7-((2R,5S)-6,6,6-trifluoro-5-hydroxy-5-methylhexan-2-yl)-1,2,3,4,4a,4b,5,6,6a,7,8,9,10,10a,10b,11-hexadecahydrochrysen-2-ol] |  | 
10 |  | 0.1 to 0.5 | CC[C@]1(O)CC[C@@]2(C)C(=CC[C@H]3[C@@H]4CCC[C@H]([C@H](C)CC[C@](C)(O)C(F)(F)F)[C@@]4(C)CC[C@@H]32)C1 [Compound H-9, (2S,4aR,4bS,6aR,7R,10aS,10bS)-2-ethyl-4a,6a-dimethyl-7-((2R,5S)-6,6,6-trifluoro-5-hydroxy-5-methylhexan-2-yl)-1,2,3,4,4a,4b,5,6,6a,7,8,9,10,10a,10b,11-hexadecahydrochrysen-2-ol] |  | 
11 |  | 0.5 to 1 | CC[C@]1(O)CC[C@@]2(C)C(=CC[C@H]3[C@@H]4CCC[C@H]([C@H](C)CC[C@@](C)(O)C(F)(F)F)[C@@]4(C)CC[C@@H]32)C1 [Compound H-10, (2S,4aR,4bS,6aR,7R,10aS,10bS)-2-ethyl-4a,6a-dimethyl-7-((2R,5R)-6,6,6-trifluoro-5-hydroxy-5-methylhexan-2-yl)-1,2,3,4,4a,4b,5,6,6a,7,8,9,10,10a,10b,11-hexadecahydrochrysen-2-ol] |  | 
12 |  | 0.1 to 0.5 | C[C@H](CC[C@@](C)(O)C(F)(F)F)[C@H]1CCC[C@H]2[C@@H]3CC=C4C[C@@](C)(O)CC[C@]4(C)[C@H]3CC[C@]12C [Compound H-11, (2S,4aR,4bS,6aR,7R,10aS,10bS)-2,4a,6a-trimethyl-7-((2R,5R)-6,6,6-trifluoro-5-hydroxy-5-methylhexan-2-yl)-1,2,3,4,4a,4b,5,6,6a,7,8,9,10,10a,10b,11-hexadecahydrochrysen-2-ol] |  | 
